Our source for the survived drying values is patent US20050074867A1, “Preservation of competent cells at ambient temperatures” (priority 2001, published 2005).

In the assay the test system is logarithmic E. coli cells. In words: Preservation survival and stability of logarithmic E. coli cells loaded in vitro before foam drying. Type of assay: cell-based. The procedure:
(3) Loading of fresh electrocompetent E. coli cells before preservation: When applicable, one aliquot of the cell concentrate (3.2 ml of cells in PBS buffer, approx. 2×10^10 cfu/ml) was mixed with 0.8 ml of 50% methyl-glucoside (MAG; 10% final concentration) and incubated at 37° C. for 30 minutes (in vitro loading). A second aliquot (3.2 ml of the cell concentrate) was mixed with 0.8 ml of PBS buffer and incubated on ice for 30 minutes (control, unloaded cells). Similar to loading with MAG, the cells were loaded with 2-deoxyglucose (2-DOG) as described in Example 5 infra.
(4) Preservation of electrocompetent E. coli cells: The cells (resuspended in PBS buffer or on 20% sucrose) were mixed with an equal mass of preservation solution consisting of 45% 2:1 sucrose:raffinose or 45% 4:1 sucrose:MAG on ice. Altematively, the cell pellets were resuspended directly in 22.5% sucrose:raffinose or 22.5% 4:1 sucrose:MAG. The 0.5 g aliquots were distributed in 5 ml glass serum vials or 0.2 g aliquots were distributed in 1.2 ml glass serum vials. To determine the survival in preservation solution before drying, cell-containing mixtures were diluted in PBS buffer containing 20% sucrose and appropriate dilutions were spread plated in duplicate on L-agar plates.
The samples were dried by foam formation. The mixtures were foamed at 0° C. and kept at that temperature until foam formation occurred. After foam was well formed, shelf temperature was increased to 20° C. and drying continued overnight (at least 12 hours).
(5) Assaying the preserved E. coli cells: Dried samples were rehydrated at room temperature. 1 ml of rehydration solution (20% sucrose) was added to the 5 ml vials and 0.2 ml was added to the 1.2 ml vials. For the determination of preservation survival, rehydrated cells were diluted and spread plated in duplicate on L-agar plates. Plates were incubated at 37° C. overnight and colonies were counted the following day.
Bacterial culture was grown until OD550=0.5 was reached (mid-log growth stage). The cell concentrates were prepared as described previously. Control cells, which were not loaded, were incubated on ice for 30 minutes. Cell concentrates were incubated with different amounts (0.15-1%, 5%, 10% and 15%) of glucose and glucose nonmetabolizable analogs at 37° C. for 30 minutes (loading). These mixtures were preserved as described previously.
Accumulation of MAG in the cells prior to drying enhances preservation of logarithmic E. coli cells. Two cell concentrates (harvested at mid-log growth stage) were prepared as described previously. To induce uptake of MAG, 0.5% glucose was added to the growth medium (“induced culture”). Both concentrates were incubated with 10% MAG at 37° C. for 30 minutes (loading). When loading was completed, one concentrate was diluted 100-fold in PBS buffer and incubated at 37° C. for an additional 30 minutes to induce expulsion of the pre-accumulated MAG. Both concentrates were preserved as described previously.
Mid-logarithmic culture was prepared as described previously. 0.5% glucose was added to the growth medium (“induced cells”). The culture was concentrated 10-fold and the concentrates were incubated for 30 minutes with 10% MAG at different temperatures (0, 20, 40, and 60° C.). The mixtures were preserved as described previously.
Effect of incubation time on accumulation of MAG in logarithmic E. coli cells. Cell concentrates were prepared as described previously (0.5% glucose was added to the growth medium) and incubated with 10% MAG at 37° C. for 0, 2.5, 5, 15, 30, and 60 minutes. The mixtures were preserved as described previously.
Effect of growth stage on accumulation of MAG in E. coli cells. E. coli cultures were grown in L-broth with 0.5% glucose as described previously and harvested at OD550=0.1 (early-log), 0.5 (mid-log), 1.0 (late-log) and 2.0 (stationary cells). The cells in each culture were concentrated and split in two aliquots. […]

In the case of `O=CC[C@@H](O)[C@H](O)[C@H](O)CO` [Sample 2-DOG, 2-deoxyglucose], the survived drying reads like this: (mid-logarithmic cells loaded with 0.1-1% at 37° C. for 30 minutes) 9-12%; (mid-logarithmic cells loaded with 5% at 37° C. for 30 minutes) 20%; (mid-logarithmic cells loaded with 10% at 37° C. for 30 minutes) 16%; (mid-logarithmic cells loaded with 15% at 37° C. for 30 minutes) 20%.
